This note sets out measurements from PubChem BioAssay AID328 (DTP/NCI, 2004).

“And” between values parts separate entries of the source, which are not always exact repeats. Equal values may be shown once. Inconclusive results and toxic doses are left out.

This assay has as its system BDF1 mice, P388 leukemia ip, median survival T/C. The experiment in a line: NCI In Vivo Anticancer Drug Screen. Data for tumor model P388 Leukemia (intraperitoneal) in B6D2F1 (BDF1) mice. Conditions: endpoint: median survival time, higher = longer survival. The essentials:
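Compound-treated tumour-bearing mice were compared with vehicle-treated controls. Survival was recorded, and the value is the treated-group measurement divided by the control-group measurement (T/C).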

[1] abbreviates: dose: 10.0 mg/kg/injection, schedule: Q01DX010 (ip), vehicle: saline.
Setting [2] is: dose: 400.0 mg/kg/injection, schedule: Q04DX003 (ip), vehicle: saline with Tween-80.
The mark [3] stands for this setting: dose: 100.0 mg/kg/injection, schedule: Q01DX009 (ip), vehicle: saline with Tween-80.
The mark [4] stands for this setting: dose: 200.0 mg/kg/injection, schedule: Q01DX009 (ip), vehicle: saline with Tween-80.
Setting [5] is: dose: 50.0 mg/kg/injection, schedule: Q01DX009 (ip), vehicle: saline.
Where [6] appears, read: dose: 100.0 mg/kg/injection, schedule: Q01DX009 (ip), vehicle: saline.
Setting [7] is: dose: 100.0 mg/kg/injection, schedule: Q04DX003 (ip), vehicle: saline.
Where [8] appears, read: dose: 100.0 mg/kg/injection, schedule: Q04DX003 (ip), vehicle: saline with Tween-80.
The mark [9] stands for this setting: dose: 200.0 mg/kg/injection, schedule: Q04DX003 (ip), vehicle: saline with Tween-80.
The mark [10] stands for this setting: dose: 2.0 mg/kg/injection, schedule: Q01DX009 (ip), vehicle: saline.

`CCCCC(=O)OCC(=O)[C@]1(O)Cc2c(O)c3c(c(O)c2[C@@H](OC2CC(NC(=O)C(F)(F)F)C(O)C(C)O2)C1)C(=O)c1c(OC)cccc1C3=O` (some centres not stated): the T/C reads like this: (dose: 5.0 mg/kg/injection, schedule: Q01DX004 (ip), vehicle: other) 162 % of control; (dose: 10.0 mg/kg/injection, schedule: Q01DX004 (ip), vehicle: other) 155 % of control and 189 % of control; (dose: 13.0 mg/kg/injection, schedule: Q01DX004 (ip), vehicle: saline with Tween-80) 203 % of control; (dose: 20.0 mg/kg/injection, schedule: Q01DX004 (ip), vehicle: other) 288 % of control and 187 % of control; (dose: 21.0 mg/kg/injection, schedule: Q01DX004 (ip), vehicle: saline with Tween-80) 221 % of control; (dose: 21.6 mg/kg/injection, schedule: Q01DX004 (ip), vehicle: saline with Tween-80) 221 % of control. Moreover, the T/C runs as follows: (dose: 25.2 mg/kg/injection, schedule: Q04DX003 (ip), vehicle: other) 175 % of control; (dose: 30.0 mg/kg/injection, schedule: Q01DX004 (ip), vehicle: other) 263 % of control and 351 % of control; (dose: 36.0 mg/kg/injection, schedule: Q01DX004 (ip), vehicle: saline with Tween-80) 353 % of control; (dose: 40.0 mg/kg/injection, schedule: Q01DX004 (ip), vehicle: other) 98 % of control; (dose: 42.0 mg/kg/injection, schedule: Q04DX003 (ip), vehicle: other) 262 % of control; (dose: 50.0 mg/kg/injection, schedule: Q01DX004 (ip), vehicle: other) 86 % of control. Besides, the T/C (dose: 70.0 mg/kg/injection, schedule: Q04DX003 (ip), vehicle: other) is 506 % of control.
Turning to `C=C1C(=O)OC2CC3(C)OC3C3OC3C3=CC(OC3=O)C12` (configuration not stated), the T/C is 115 % of control (dose: 1.25 mg/kg/injection, schedule: Q01DX010 (ip), vehicle: saline); 115 % of control (dose: 2.5 mg/kg/injection, schedule: Q01DX010 (ip), vehicle: saline); 115 % of control (dose: 5.0 mg/kg/injection, schedule: Q01DX010 (ip), vehicle: saline); 100 % of control under setting [1].
Turning to `CC1(c2ccc(Cl)s2)NC(=O)NC1=O` (configuration not stated), the T/C is 100 % of control (dose: 300.0 mg/kg/injection, schedule: Q04DX003 (ip), vehicle: saline with Tween-80); 98 % of control under setting [2]; 86 % of control (dose: 600.0 mg/kg/injection, schedule: Q04DX003 (ip), vehicle: saline with Tween-80).
Consider `CCOC(=O)c1cc2c(nn3c(C)cccc23)n(CC)c1=N`, for which the T/C reads like this: (dose: 6.25 mg/kg/injection, schedule: Q01DX001 (ip), vehicle: saline) 105 % of control; (dose: 12.5 mg/kg/injection, schedule: Q01DX001 (ip), vehicle: saline) 122 % of control; (dose: 25.0 mg/kg/injection, schedule: Q01DX001 (ip), vehicle: saline) 100 % of control.
Consider `COC(OC)c1[nH]c(=S)[nH]c(=O)c1Cc1ccc(C)c(C)c1`, for which the T/C reads like this: under setting [3], 103 % of control; under setting [4], 96 % of control; (dose: 400.0 mg/kg/injection, schedule: Q01DX009 (ip), vehicle: saline with Tween-80) 100 % of control.
Consider `O=C(O)c1cc(O)c(O)c(O)c1`, for which the T/C is, setting by setting: (dose: 1.25 mg/kg/injection, schedule: Q01DX009 (ip), vehicle: saline) 90 % of control; (dose: 2.5 mg/kg/injection, schedule: Q01DX009 (ip), vehicle: saline) 95 % of control; (dose: 5.0 mg/kg/injection, schedule: Q01DX009 (ip), vehicle: saline) 95 % of control; (dose: 10.0 mg/kg/injection, schedule: Q01DX009 (ip), vehicle: saline) 115 % of control; under setting [1], 110 % of control; (dose: 20.0 mg/kg/injection, schedule: Q01DX010 (ip), vehicle: saline) 100 % of control. The T/C by setting is: (dose: 40.0 mg/kg/injection, schedule: Q01DX010 (ip), vehicle: saline) 90 % of control; under setting [5], 100 % of control; under setting [6], 100 % of control; (dose: 200.0 mg/kg/injection, schedule: Q01DX009 (ip), vehicle: saline) 104 % of control.
In the case of `CCCCCC[P+](c1ccccc1)(c1ccccc1)c1ccccc1`, the T/C runs as follows: (dose: 6.25 mg/kg/injection, schedule: Q01DX009 (ip), vehicle: saline) 114 % of control; (dose: 6.25 mg/kg/injection, schedule: Q04DX003 (ip), vehicle: saline) 109 % of control; (dose: 12.5 mg/kg/injection, schedule: Q01DX009 (ip), vehicle: saline) 92 % of control; (dose: 12.5 mg/kg/injection, schedule: Q04DX003 (ip), vehicle: saline) 104 % of control.
Consider `O=C1c2cc3c(cc2CCC1c1ccc2c(c1)OCO2)OCO3` (configuration not stated), for which the T/C is 91 % of control (dose: 20.0 mg/kg/injection, schedule: Q01DX009 (ip), vehicle: saline with Tween-80); 91 % of control (dose: 40.0 mg/kg/injection, schedule: Q01DX009 (ip), vehicle: saline with Tween-80); 95 % of control (dose: 120.0 mg/kg/injection, schedule: Q01DX009 (ip), vehicle: saline with Tween-80); 91 % of control (dose: 240.0 mg/kg/injection, schedule: Q01DX009 (ip), vehicle: saline with Tween-80).
Take `CCN(CC)CCOc1cc(C)ccc1C`: the T/C reads like this: (dose: 25.0 mg/kg/injection, schedule: Q01DX009 (ip), vehicle: saline) 103 % of control; (dose: 25.0 mg/kg/injection, schedule: Q04DX003 (ip), vehicle: saline) 109 % of control; under setting [5], 92 % of control; (dose: 50.0 mg/kg/injection, schedule: Q04DX003 (ip), vehicle: saline) 100 % of control; under setting [6], 89 % of control; under setting [7], 90 % of control.
Take `CC(CS(=O)(=O)O)N1CCN(CCO)CC1` (configuration not stated): the T/C is 95 % of control under setting [7]; 100 % of control (dose: 200.0 mg/kg/injection, schedule: Q04DX003 (ip), vehicle: saline); 100 % of control (dose: 400.0 mg/kg/injection, schedule: Q04DX003 (ip), vehicle: saline).
Turning to `CC(=O)c1nc2c(N)nc(N)nc2nc1C`, the T/C is, setting by setting: under setting [8], 92 % of control; under setting [9], 111 % of control; under setting [2], 106 % of control.
With `Cc1c(CNc2ccc(C(=O)NC(CC(=O)O)CC(=O)O)cc2)ccc2nc(N)nc(N)c12`, the T/C runs as follows: (dose: 0.19 mg/kg/injection, schedule: Q01DX009 (ip), vehicle: saline) 165 % of control; (dose: 0.37 mg/kg/injection, schedule: Q01DX009 (ip), vehicle: saline) 215 % of control; (dose: 0.75 mg/kg/injection, schedule: Q01DX009 (ip), vehicle: saline) 100 % of control; (dose: 1.5 mg/kg/injection, schedule: Q01DX009 (ip), vehicle: saline) 95 % of control; under setting [10], 110 % of control.
For `C[CH2][Ge]1([CH2]C)[CH2]CC2(CCN(CCCN(C)C)C2)C[CH2]1`, the T/C is, setting by setting: (dose: 0.5 mg/kg/injection, schedule: Q01DX009 (ip), vehicle: saline) 105 % of control; (dose: 1.0 mg/kg/injection, schedule: Q01DX009 (ip), vehicle: saline) 102 % of control; under setting [10], 103 % of control; (dose: 4.0 mg/kg/injection, schedule: Q01DX009 (ip), vehicle: saline) 104 % of control and 118 % of control; (dose: 8.0 mg/kg/injection, schedule: Q01DX009 (ip), vehicle: saline) 102 % of control; (dose: 16.0 mg/kg/injection, schedule: Q01DX009 (ip), vehicle: saline) 103 % of control. For the same compound, the T/C was 100 % of control (dose: 32.0 mg/kg/injection, schedule: Q01DX009 (ip), vehicle: saline); 102 % of control under setting [5]; 92 % of control (dose: 60.0 mg/kg/injection, schedule: Q01DX009 (ip), vehicle: saline with Tween-80); 91 % of control (dose: 64.0 mg/kg/injection, schedule: Q01DX009 (ip), vehicle: saline).
As for `FC(F)(F)c1ccc(C=Nc2ccc(Oc3ccccc3)cc2)cc1`, the T/C is, setting by setting: (dose: 50.0 mg/kg/injection, schedule: Q01DX009 (ip), vehicle: saline with Tween-80) 98 % of control; under setting [3], 100 % of control; under setting [4], 91 % of control.
As to `CCCN(CCC)CCC#N`, the T/C reads like this: (dose: 50.0 mg/kg/injection, schedule: Q04DX003 (ip), vehicle: saline with Tween-80) 104 % of control; under setting [8], 100 % of control; under setting [9], 90 % of control.
